# Assays:
# [1] = system: mouse maximal electroshock seizure (MES) model; test: Maximal electroshock seizure (MES) test, mouse; format: in vivo; conditions: MES, mouse; read-out: Mouse ED50
# Excerpt: (§1) The MES testing protocol is based on procedures established at the National Institute of Neurological Disorders and Stroke in conjunction with the Anticonvulsant Screening Program (ASP) at the University of Utah (White, H. S., Woodhead, J. H., Wilcox, K. S., Stables, J. P., Kupferberg, H. J and Wolf, H. H. 2002. “General Principles: Discovery and Preclinical Development of Antiepileptic Drugs,” in Antiepileptic Drugs, 5th Edition, R. H. Levy, ed.; R. H. Mattson, B. S. Meldrum, and E. Perucca. Philadelphia, Lippincott Williams & Wilkins.), The goal of the test rapid identification and characterization of the in vivo anticonvulsant activity of any compounds that have been shown active in PC-12 cellular based Rb^+ efflux assay.
# (§2) Adult male CF-I albino mice (18-25 g, Charles River Laboratories) are exclusively used for in-house MES screen of compounds. Male Sprague-Dawley albino rats (100-125 g, Charles River Laboratories) are also used to test anticonvulsant compounds. Variability of test outcomes is reduced by using animals of the same sex, age, and weight. Animals are permitted to rest and recover from transit for at least 48 hr prior to experimentation. Animals are used for AED testing only once. In some instances, the animals may be anesthetized prior to blood collection and/or whole brain extraction for pharmacokinetic assay. All animals are maintained and handled as outlined in standard animal care guidelines.
# (§3) In the experiments, testing compounds are prepared as suspensions in 0.5% methyl cellulose (Sigma, Cat #M0512, Viscosity 4000 cP at 20° C.) in water, regardless of solubility. Dry powder compounds are initially ground with a glass rod in a test tube in several drops of methyl cellulose to create a paste and to break down any large chunks. After several minutes of grinding, the volume of the suspension is increased to the final concentration desired. The suspension is then sonicated using a Branson sonicator model 3510 in a water bath at room temperature for 15 minutes. Compound suspensions are further vortexed prior to animal dosing. In some of the cases, DMSO is used to initially solubilize compounds in small volumes and then this solution is added to the 0.5% methyl cellulose solution, in order to create more even and less aggregated compound suspensions. The final concentration of DMSO is 3.75%, an amount with no apparent toxicity or neuroprotective effects in our usual rotarod and MES tests. Methyl cellulose/DMSO compound suspensions are identically prepared for intraperitoneally (i.p.) to mice or orally (p.o.) to rat dosing.
# Initially the animals are weighed with an electronic scale and then marked. Data recording sheets are generated for each compound assessment. Mice or rats are dosed with the compound suspension at 0.01 mL/g of body weight. The typical injection volume range is between 180-250 μl for mice. […] Rats are p.o. dosed using a flexible feeding tube, typically starting at a compound dose of 5 mg/kg.
# A Rodent Electroconvulsive Stimulator (Model 200, Hamit-Darvin-Freesh, Snow Canyon Clinic, Ivins, Utah) is used for MES testing. A 60-Hz alternating current (50 mA for mice; 150 mA for rats) is delivered for 0.2 seconds through corneal electrodes to the mice. A drop of 0.5% tetracaine (Sigma, Cat. #T-7508) solution is placed on the eye prior to current delivery. The electrodes are subsequently placed gently onto the eyes of the animal and the electrical shock is initiated by triggering through a foot-pedal activator. The animals are restrained by hand and gently released as the shock is delivered and the seizure commences. Animals are monitored for hind limb tonic extension as the end point for this test. Current delivery is recorded as a measure of overall seizure-induction potential. Electrical current delivery can vary from approximately 30-55 mA (mice) or 90-160 mA (rats) depending on impedance in the animal and quality of the current delivery (ie. correct placement of the electrodes on the cornea). […]
# [2] = system: rat MES model of epilepsy; test: Maximal electroshock seizure (MES) test, rat; format: in vivo; conditions: MES, rat; read-out: Rat ED50
# Excerpt: as §1, §2, §3
# Initially the animals are weighed with an electronic scale and then marked. Data recording sheets are generated for each compound assessment. Mice or rats are dosed with the compound suspension at 0.01 mL/g of body weight. The typical injection volume range is between 180-250 μl for mice. Compounds are dosed by i.p. to mice using a 25 or 22 gauge needle, depending on the viscosity of the suspension. Rats are p.o. dosed using a flexible feeding tube, typically starting at a compound dose of 5 mg/kg.
# A Rodent Electroconvulsive Stimulator (Model 200, Hamit-Darvin-Freesh, Snow Canyon Clinic, Ivins, Utah) is used for MES testing. A 60-Hz alternating current (50 mA for mice; 150 mA for rats) is delivered for 0.2 seconds through corneal electrodes to the mice. […] Animals are monitored for hind limb tonic extension as the end point for this test. Current delivery is recorded as a measure of overall seizure-induction potential. […]
# [3] = biological target: KCNQ4 (Homo sapiens, UniProt P56696); test: Two-electrode voltage-clamp in Xenopus laevis oocytes, KCNQ4; format: cell-based; conditions: oocyte expression, at EC75
# Experimental: (§4) Female Xenopus laevis extracted ovaries were purchased from eNASCO (LM00935MX, eNASCO Fort Atkinson, Wis.). […] Approximately 50 nl cRNA (about 50 ng) was injected for KCNQ1, KCNQ4, and KCNQ5 using a Nanoject microinjector (Drummond, Broomall, Pa., USA). For co-expression of KCNQ2 and KCNQ3 and of KCNQ1 and KCNE1, cRNA's were mixed in equal molar ratios before injection of approximately 50 nl. […] Oocytes were kept in Culture Barth solution at 19° C. which was changed daily and currents were recorded after 3 to 5 days.
# (§5) KCNQ channel currents expressed in Xenopus laevis oocytes were recorded using a two-electrode voltage-clamp. […] The oocytes were placed in custom built perfusion chambers connected to a continuous flow system and impaled with a current electrode and a voltage-clamp electrode pulled from borosilicate glass on a Flaming/Brown Micropipette Puller (Sutter Instruments Co, Novato, Calif., USA).
# (§6) All compounds were dissolved in DMSO to obtain concentrated stock solutions. On the day of electrophysiological experiments the stock solutions were thawed and diluted in recording solution to their final concentrations. The final DMSO concentration never exceeded 0.1%. Compound delivery was performed using a custom built multi-barrel apparatus connected to the flow system.
# (§7) Data were acquired by means of an Axograph X software (Axograph Scientific, Sydney, AU) and analyzed using Graph Pad Prism (GraphPad Software Inc., CA, USA). […]
# (§8) After steady channel current was recorded in the presence of Retigabine at its EC75, recorded oocyte was washed with the recording solution until its steady current returned to its normal level without the presence of any drugs. Then the channel steady current was recorded in the presence of the test compound at its EC75. The percent efficacy was then expressed as: % efficacy=(C2/C 1)×100 where C2 is the recorded steady current in the presence of follow-on compound at its EC75 and C1 is the recorded steady current in the presence of Retigabine at its EC75.
# [4] = biological target: KCNQ5 (Homo sapiens, UniProt Q9NR82); test: Two-electrode voltage-clamp in Xenopus laevis oocytes, KCNQ5; format: cell-based; conditions: oocyte expression, at EC75
# Experimental: as §4, §5, §6, §7, §8
# [5] = biological target: KCNQ1/NE1 (Homo sapiens, UniProt P51787); test: Two-electrode voltage-clamp in Xenopus laevis oocytes, KCNQ1/KCNE1; format: cell-based; design: dose or concentration left out as unconfirmed; conditions: oocyte expression
# KCNQ1/NE1, sequence (P51787 whole entry): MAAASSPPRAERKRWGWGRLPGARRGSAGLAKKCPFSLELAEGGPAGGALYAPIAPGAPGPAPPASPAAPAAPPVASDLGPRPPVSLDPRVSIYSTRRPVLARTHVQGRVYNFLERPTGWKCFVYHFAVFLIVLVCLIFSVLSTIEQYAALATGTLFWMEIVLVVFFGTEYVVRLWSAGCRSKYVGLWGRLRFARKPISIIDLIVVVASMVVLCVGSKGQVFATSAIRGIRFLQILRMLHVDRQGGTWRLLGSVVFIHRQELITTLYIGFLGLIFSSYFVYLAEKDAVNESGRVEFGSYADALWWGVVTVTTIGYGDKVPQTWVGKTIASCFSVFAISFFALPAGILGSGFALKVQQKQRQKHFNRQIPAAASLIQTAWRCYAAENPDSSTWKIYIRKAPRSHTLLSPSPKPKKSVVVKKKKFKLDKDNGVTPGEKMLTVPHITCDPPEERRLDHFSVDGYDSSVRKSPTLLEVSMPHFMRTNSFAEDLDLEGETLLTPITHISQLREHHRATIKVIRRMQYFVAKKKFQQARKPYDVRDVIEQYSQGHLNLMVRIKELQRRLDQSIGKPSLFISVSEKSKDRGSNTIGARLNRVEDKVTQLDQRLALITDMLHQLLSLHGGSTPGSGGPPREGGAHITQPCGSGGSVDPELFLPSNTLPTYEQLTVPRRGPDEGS
# Experimental: as §4
# KCNQ channel currents expressed in Xenopus laevis oocytes were recorded using a two-electrode voltage-clamp. […]
# as §7, §8
# [6] = biological target: KCNQ1 (Homo sapiens, UniProt P51787); test: Two-electrode voltage-clamp in Xenopus laevis oocytes, KCNQ1; format: cell-based; design: KCNQ1 Block (%): dose or concentration left out as unconfirmed; conditions: oocyte expression
# Experimental: as §4, §5, §6, §7, §8
# [7] = biological target: T1, KCNQ2 channels (Homo sapiens, UniProt O43526); test: Potassium ion efflux, KCNQ2 channels expressed in CHO cells; format: cell-based
# T1 construct: expressed in transfected cells; host or cells: CHO cells
# T1 sequence (O43526 whole entry): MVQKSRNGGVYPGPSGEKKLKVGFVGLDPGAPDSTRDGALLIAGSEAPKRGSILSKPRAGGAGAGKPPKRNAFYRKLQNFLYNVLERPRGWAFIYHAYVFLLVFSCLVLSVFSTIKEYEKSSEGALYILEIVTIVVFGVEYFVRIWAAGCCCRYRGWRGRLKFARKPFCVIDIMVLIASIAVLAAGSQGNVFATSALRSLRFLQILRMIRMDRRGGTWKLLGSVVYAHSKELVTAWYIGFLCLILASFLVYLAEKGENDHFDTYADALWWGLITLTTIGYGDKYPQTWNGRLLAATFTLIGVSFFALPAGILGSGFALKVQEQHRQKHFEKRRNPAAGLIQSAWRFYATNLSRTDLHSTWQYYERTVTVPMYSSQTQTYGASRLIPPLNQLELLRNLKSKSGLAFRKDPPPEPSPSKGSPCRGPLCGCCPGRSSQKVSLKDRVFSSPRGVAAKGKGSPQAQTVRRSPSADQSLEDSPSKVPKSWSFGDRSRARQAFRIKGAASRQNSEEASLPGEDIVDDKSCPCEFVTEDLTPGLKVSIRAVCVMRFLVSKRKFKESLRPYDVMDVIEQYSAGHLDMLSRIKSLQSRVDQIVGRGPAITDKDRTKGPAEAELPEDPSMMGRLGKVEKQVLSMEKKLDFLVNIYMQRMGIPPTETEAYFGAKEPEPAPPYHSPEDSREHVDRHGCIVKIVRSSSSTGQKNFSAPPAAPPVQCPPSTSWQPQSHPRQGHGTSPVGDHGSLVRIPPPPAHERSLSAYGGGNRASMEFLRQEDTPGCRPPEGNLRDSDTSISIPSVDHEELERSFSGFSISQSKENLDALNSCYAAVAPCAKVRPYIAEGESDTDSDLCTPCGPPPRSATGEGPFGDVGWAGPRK
# Experimental: Using natively expressed M-currents present in differentiated pheochromocytoma (PC-12) cells and CHO cells transfected with KCNQ2 and hERG potassium channels, the in vitro activity of compound A on potassium ion efflux was determined.
# The EC50 values for retigabine and compound A on the activation of KCNQ2 channels expressed in CHO cells were determined on three separate occasions in triplicate.
# [8] = biological target: KCNQ2/3 (Homo sapiens, UniProt O43525+O43526); test: Two-electrode voltage-clamp in Xenopus laevis oocytes, KCNQ2/3; format: cell-based; conditions: oocyte expression, at EC75
# Experimental: as §4, §5, §6, §7, §8
Structure (SMILES),ED50 [1] [mg/kg],other results
COc1cc(N2CCc3ccccc3C2)cc(C)c1NC(=O)CC(C)(C)C,0.12 to 1.2,
CC(C)(C)CC(=O)Nc1c(Cl)cc(N2CCc3ccccc3C2)cc1C(F)(F)F,> 12,
COc1ccc2c(c1)CCN(c1cc(C)c(NC(=O)CC(C)(C)C)c(C)c1)C2,> 12,
CC(C)(C)CC(=O)Nc1c(Cl)cc(N2CCc3cc(C(F)(F)F)ccc3C2)cc1C(F)(F)F,> 12,
Cc1cc(N2CCc3cc(F)ccc3C2)cc(C)c1NC(=O)CC(C)(C)C [drawing 119],0.12 to 1.2,ED50 [2]: 0.12 to 1.2 mg/kg
CC(C)(C)CC(=O)Nc1c(Cl)cc(N2CCc3cc(Cl)ccc3C2)cc1C(F)(F)F,> 12,
CC(C)(C)CC(=O)Nc1ccc(N2CCc3cc(F)ccc3C2)cc1Cl,> 12,
O=C(CCC1CCCC1)Nc1c(Cl)cc(N2CCc3cc(F)ccc3C2)cc1C(F)(F)F,> 12,
Cc1cc(N2CCc3cc(F)ccc3C2)cc(Cl)c1NC(=O)CC(C)(C)C,> 12,
CC(C)(C)CC(=O)Nc1c(Cl)cc(N2CCc3ccccc3C2)cc1OC(F)(F)F,> 12,
CC(C)(C)CC(=O)Nc1c(Cl)cc(N2CCc3ccc(F)cc3C2)cc1C(F)(F)F,> 12,
Cc1cc(N2CCc3ccccc3C2)cc(C)c1NC(=O)CC(C)(C)C,0.12 to 1.2,
"CCOC(=O)Nc1ccc(NCc2ccc(F)cc2)cc1N [retigabine, N-[2-amino-4-(4-fluorobenzylamino)phenyl]carbamic acid, ethyl ester, reference compound]",,KCNQ4 Efficacy Relative to Retigabine (%) [3]: 100%; KCNQ5 Efficacy Relative to Retigabine (%) [4]: 100%; KCNQ1/NE1 Block (%) [5]: 4.3%; KCNQ1 Block (%) [6]: 12%; EC50 [7]: 291 nM; KCNQ2/3 Efficacy Relative to Retigabine (%) [8]: 100%
CC(C)(C)CC(=O)Nc1c(Cl)cc(N2CCc3cc(F)ccc3C2)cc1C(F)(F)F,> 12,
Cc1cc(N2CCc3cc(Cl)ccc3C2)cc(C)c1NC(=O)CC(C)(C)C,0.12 to 1.2,
Cc1cc(N2CCc3cc(C(F)(F)F)ccc3C2)cc(Cl)c1NC(=O)CC(C)(C)C,> 12,
CC(C)(C)CC(=O)Nc1ccc(N2CCc3cc(F)ccc3C2)cc1C(F)(F)F,0.12 to 1.2,
O=C(CCC1CCCC1)Nc1c(Cl)cc(N2CCc3ccccc3C2)cc1C(F)(F)F,> 12,
Cc1cc(N2CCc3ccccc3C2)cc(Cl)c1NC(=O)CC(C)(C)C,0.12 to 1.2,
CC(C)(C)CC(=O)Nc1ccc(N2CCc3ccc(C(F)(F)F)cc3C2)cc1C(F)(F)F,0.12 to 1.2,
COc1cc(N2CCc3ccccc3C2)cc(OC)c1NC(=O)CC(C)(C)C,0.12 to 1.2,ED50 [2]: 0.12 to 1.2 mg/kg
Cc1cc(N2CCc3ccc(F)cc3C2)cc(C)c1NC(=O)CC(C)(C)C,0.12 to 1.2,
Cc1cc(N2CCc3ccc(C(F)(F)F)cc3C2)cc(C)c1NC(=O)CC(C)(C)C,0.12 to 1.2,ED50 [2]: 0.12 to 1.2 mg/kg
CC(C)(C)CC(=O)Nc1ccc(N2CCc3cc(C(F)(F)F)ccc3C2)cc1Cl,> 12,
Cc1cc(N2CCc3cc(Cl)ccc3C2)cc(Cl)c1NC(=O)CC(C)(C)C,0.12 to 1.2,
Cc1cc(N2CCc3cc(C(F)(F)F)ccc3C2)cc(C)c1NC(=O)CC(C)(C)C,0.12 to 1.2,ED50 [2]: 0.12 to 1.2 mg/kg
Cc1cc(N2CCc3ccc(F)cc3C2)cc(Cl)c1NC(=O)CC(C)(C)C,0.12 to 1.2,

# Source: patent US8993593B2, “N-(4-(6-fluoro-3,4-dihydroisoquinolin-2(1H)-yl)-2,6-dimethylphenyl)-3,3-dimethylbutanamide as potassium channel modulators” (Valeant Pharmaceuticals International, priority 2006, dated 2015)
